Source: patent US11203582B2, “Benzamide derivatives for inhibiting endoplasmic reticulum (ER) stress” (The Board of Regents of the University of Oklahoma, priority 2017, dated 2021)

Key:
Format in all cases: cell-based, rat
[1] = test system: GRP94 mRNA; test: qRT-PCR of GRP94 mRNA in Tm-treated INS-1 cells; details: Tm 0.1 μg/mL co-treatment, 8 h
Procedure: INS-1 cells were treated with or without Tm (0.1 μg/mL) in the presence of 13d or DMSO for 8 h. Bip (A) and GRP94 (B) mRNA levels were analyzed by qRT-PCR. Relative mRNA levels were normalized against the housekeeping gene Cyclophilin A using the comparative CT method. The results are the means of 3 replicate wells and representative of 3 independent experiments. ** P<0.01 compared with Tm treatment alone. Error bars indicate SD.
We then investigated the effects of 13d on the activation of ATF6 in β-cells under ER stress. Activated ATF6 acts as a homodimer or as an ATF6-XBP1s heterodimer to control the up-regulation of select UPR target genes including the chaperone proteins BiP and GRP94. Therefore, these two chaperone proteins were evaluated in the INS-1 cells in the presence of Tm.
INS-1 cells were seeded at 4×10^5 cells/well in 6-well plates and treated with compounds for the indicated times. Total RNA was extracted using TRIzol reagent (Invitrogen, Carlsbad, Calif.) according to the manufacturer's protocol, and 2 μg of total RNA was reverse transcribed using a Superscript kit (Invitrogen). […] Relative mRNA levels were normalized against the housekeeping gene Cyclophilin A and were determined by ΔΔCt calculated from the difference in ΔCt values between the target gene and Cyclophilin A with and without treatment, based on comparative CT (cycle threshold) method. […]

[2] = test system: ATF4 mRNA; test: qRT-PCR of ATF4 mRNA in INS-1 cells
Procedure: (A, B) INS-1 cells were treated with or without Tm (0.1 μg/mL) in the presence of 13d or DMSO for 8 h. ATF4 (A) and CHOP (B) mRNA levels were analyzed by qRT-PCR. Relative mRNA levels were normalized against the housekeeping gene Cyclophilin A using the comparative CT method. The results were expressed as the fold-increase over mRNA levels in untreated control cells and are the means of 3 replicate wells and representative of 3 independent experiments. ** P<0.01 compared with Tm treatment alone. Bar indicates SD. (C-E) INS-1 cells were treated with or without Tm (0.1 μg/mL) in the presence of 13d or DMSO for 8 hATF4 and CHOP protein levels were determined by Western blotting (C). α-Tubulin was used as an internal control. Quantification of ATF4 (D) and CHOP (E) protein levels was analyzed by ImageJ program, which was normalized by α-Tubulin protein level. The data shown are representative of 3 independent experiments.
Having established that compound 13d restores ER stress-impaired β-cell survival and function, we next investigated the mechanism of action by which 13d protects β-cells against ER stress. Chronic or severe ER stress activates all three branches of the UPR, PERK, IRE1α, and ATF6, leading to eventual cell death. First, we determined the effect of 13d on the activation of the PERK pathway in β-cells under ER stress. […]

[3] = test system: PDX1 mRNA; test: qRT-PCR of PDX1 mRNA in Tm-treated INS-1 cells; details: Tm co-treatment, 24 h
Procedure: (§1) (A-D) INS-1 cells were treated with or without Tm (0.1 m/mL) in the presence of 13d at indicated concentrations or DMSO for 24 h. The mRNA levels of INS1 (A), INS2 (B), PDX1 (C), and MafA (D), were analyzed by qRT-PCR. Relative mRNA levels were normalized against the housekeeping gene Cyclophilin A using the comparative CT method. The results are the means of 3 replicate wells and are representative of 3 independent experiments. * P<0.05 and ** P<0.01 compared with Tm treatment alone. Bars indicate SD. (E) Insulin secretion by INS-1 cells incubated with 1.7 mM and 20 mM glucose in the presence or absence of Tm (0.1 μg/mL) and 13d. Secreted insulin was measured by ELISA after 24 h treatment. * P<0.05. The amount of insulin secreted in response to 1.7 mM glucose in the absence of Tm was set to 1.0 and was normalized with total protein concentration.
(§2) INS-1 cells were seeded at 4×10^5 cells/well in 6-well plates and treated with compounds for the indicated times. […] Relative mRNA levels were normalized against the housekeeping gene Cyclophilin A and were determined by ΔΔCt calculated from the difference in ΔCt values between the target gene and Cyclophilin A with and without treatment, based on comparative CT (cycle threshold) method. […]

[4] = test system: MafA mRNA; test: qRT-PCR of MafA mRNA in Tm-treated INS-1 cells; details: Tm co-treatment, 24 h
Procedure: as §1, §2

O=C(NCc1ccc(C(F)(F)F)cc1)c1cccc(CN2CCCCC2)c1 [Compound 13d, N-(4-trifluoromethylphenmethyl)-3-(N-piperidinyl)methyl benzamide]
Tm-induced up-regulation of GRP94 mRNA [1]: almost completely reversed
Tm-induced increase in ATF4 mRNA level ([2]; Tm 0.1 μg/mL co-treatment, 8 h): almost completely abolished
effect on ATF4 mRNA level on its own ([2]; without Tm): no effect
Tm-decreased PDX1 mRNA expression level [3]: completely rescued
Tm-decreased MafA mRNA expression level [4]: completely rescued
